Results taken from ChEMBL document CHEMBL4507268 (2021).

How the values were obtained:
Details in all cases: Compound concentration 1000.0 nM
[1] = biological target: Tyrosine-protein kinase JAK1 (Homo sapiens) (UniProt P23458)
[2] = biological target: Phosphatidylinositol 4,5-bisphosphate 3-kinase catalytic subunit delta isoform (Homo sapiens) (UniProt O00329)
[3] = biological target: T1, Serine/threonine-protein kinase TBK1 (Homo sapiens) (UniProt Q9UHD2)
T1 sequence (whole entry): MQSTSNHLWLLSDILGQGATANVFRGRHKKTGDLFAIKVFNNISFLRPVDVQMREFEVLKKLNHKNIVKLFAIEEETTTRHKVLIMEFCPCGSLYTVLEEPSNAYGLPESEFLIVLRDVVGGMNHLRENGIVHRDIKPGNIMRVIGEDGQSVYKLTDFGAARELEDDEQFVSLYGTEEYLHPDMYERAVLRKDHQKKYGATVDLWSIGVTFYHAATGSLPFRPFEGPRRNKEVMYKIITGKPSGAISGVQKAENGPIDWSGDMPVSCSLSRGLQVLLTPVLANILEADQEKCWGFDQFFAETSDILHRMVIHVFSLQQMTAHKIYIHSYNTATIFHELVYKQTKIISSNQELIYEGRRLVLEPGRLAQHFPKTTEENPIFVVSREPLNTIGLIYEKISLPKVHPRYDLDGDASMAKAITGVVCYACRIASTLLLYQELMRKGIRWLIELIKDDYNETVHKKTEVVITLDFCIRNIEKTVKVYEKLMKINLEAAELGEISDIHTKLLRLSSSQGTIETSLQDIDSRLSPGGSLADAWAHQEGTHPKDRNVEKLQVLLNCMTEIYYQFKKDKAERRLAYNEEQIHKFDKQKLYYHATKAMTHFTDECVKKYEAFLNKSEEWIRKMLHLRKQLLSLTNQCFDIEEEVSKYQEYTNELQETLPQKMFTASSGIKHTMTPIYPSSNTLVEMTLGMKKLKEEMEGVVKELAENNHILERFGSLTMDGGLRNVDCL

[4] = biological target: Dual serine/threonine and tyrosine protein kinase (Homo sapiens) (UniProt Q6XUX3)
[5] = biological target: Dual specificity protein kinase CLK3 (Homo sapiens) (UniProt P49761)
[6] = biological target: Cyclin-dependent kinase-like 5 (Homo sapiens) (UniProt O76039)
[7] = biological target: Mitogen-activated protein kinase 6 (Homo sapiens) (UniProt Q16659)
[8] = biological target: T2, Ephrin type-B receptor 4 (Homo sapiens) (UniProt P54760)
T2 sequence (whole entry): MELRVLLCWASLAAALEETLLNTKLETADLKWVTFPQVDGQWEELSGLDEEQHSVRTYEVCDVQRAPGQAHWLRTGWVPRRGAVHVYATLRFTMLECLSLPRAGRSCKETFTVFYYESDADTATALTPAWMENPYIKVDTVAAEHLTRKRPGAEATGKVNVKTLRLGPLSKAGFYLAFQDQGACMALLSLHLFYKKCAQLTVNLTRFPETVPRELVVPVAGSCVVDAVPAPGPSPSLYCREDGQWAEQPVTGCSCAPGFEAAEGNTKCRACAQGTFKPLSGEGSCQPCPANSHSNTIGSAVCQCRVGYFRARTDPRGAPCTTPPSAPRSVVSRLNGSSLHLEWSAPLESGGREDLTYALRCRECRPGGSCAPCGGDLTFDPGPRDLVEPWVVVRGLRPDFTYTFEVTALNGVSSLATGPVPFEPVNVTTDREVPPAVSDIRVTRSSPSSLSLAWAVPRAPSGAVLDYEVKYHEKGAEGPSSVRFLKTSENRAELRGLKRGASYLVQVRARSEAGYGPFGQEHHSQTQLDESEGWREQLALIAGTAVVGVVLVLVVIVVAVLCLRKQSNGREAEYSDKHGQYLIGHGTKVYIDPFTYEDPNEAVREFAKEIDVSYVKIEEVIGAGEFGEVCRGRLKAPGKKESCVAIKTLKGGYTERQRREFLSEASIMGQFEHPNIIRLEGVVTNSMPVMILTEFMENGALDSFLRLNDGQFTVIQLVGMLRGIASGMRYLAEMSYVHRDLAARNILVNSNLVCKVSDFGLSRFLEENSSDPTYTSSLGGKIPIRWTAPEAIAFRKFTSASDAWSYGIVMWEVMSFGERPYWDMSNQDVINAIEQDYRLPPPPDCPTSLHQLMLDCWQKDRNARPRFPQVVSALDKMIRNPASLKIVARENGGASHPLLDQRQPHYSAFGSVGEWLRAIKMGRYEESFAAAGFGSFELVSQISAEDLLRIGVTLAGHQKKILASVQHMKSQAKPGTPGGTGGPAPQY

[9] = biological target: T3, Serine/threonine-protein kinase tousled-like 1 (Homo sapiens) (UniProt Q9UKI8)
T3 sequence (whole entry): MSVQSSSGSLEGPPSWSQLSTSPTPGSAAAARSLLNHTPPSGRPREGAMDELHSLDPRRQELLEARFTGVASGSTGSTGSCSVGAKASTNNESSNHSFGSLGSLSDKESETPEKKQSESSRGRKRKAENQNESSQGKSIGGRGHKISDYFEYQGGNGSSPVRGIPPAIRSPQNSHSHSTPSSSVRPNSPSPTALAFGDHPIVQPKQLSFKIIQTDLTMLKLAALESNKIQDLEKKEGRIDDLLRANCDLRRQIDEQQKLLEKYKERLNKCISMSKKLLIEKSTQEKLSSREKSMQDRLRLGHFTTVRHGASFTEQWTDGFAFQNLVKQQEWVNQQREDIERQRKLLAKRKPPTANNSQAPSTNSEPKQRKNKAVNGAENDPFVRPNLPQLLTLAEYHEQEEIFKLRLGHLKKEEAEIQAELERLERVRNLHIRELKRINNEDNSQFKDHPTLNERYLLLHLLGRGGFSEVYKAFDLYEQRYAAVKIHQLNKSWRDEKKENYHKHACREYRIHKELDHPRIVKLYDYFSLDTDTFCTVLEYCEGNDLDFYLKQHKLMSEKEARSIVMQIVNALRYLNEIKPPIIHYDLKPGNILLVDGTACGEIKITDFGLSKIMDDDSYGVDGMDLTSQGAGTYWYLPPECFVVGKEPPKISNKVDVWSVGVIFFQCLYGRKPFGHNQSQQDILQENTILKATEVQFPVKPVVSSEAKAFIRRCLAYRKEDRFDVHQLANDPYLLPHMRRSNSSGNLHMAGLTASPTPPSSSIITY

Measured: residual activity

Dual serine/threonine and tyrosine protein kinase (Homo sapiens), sequence (Q6XUX3 whole entry): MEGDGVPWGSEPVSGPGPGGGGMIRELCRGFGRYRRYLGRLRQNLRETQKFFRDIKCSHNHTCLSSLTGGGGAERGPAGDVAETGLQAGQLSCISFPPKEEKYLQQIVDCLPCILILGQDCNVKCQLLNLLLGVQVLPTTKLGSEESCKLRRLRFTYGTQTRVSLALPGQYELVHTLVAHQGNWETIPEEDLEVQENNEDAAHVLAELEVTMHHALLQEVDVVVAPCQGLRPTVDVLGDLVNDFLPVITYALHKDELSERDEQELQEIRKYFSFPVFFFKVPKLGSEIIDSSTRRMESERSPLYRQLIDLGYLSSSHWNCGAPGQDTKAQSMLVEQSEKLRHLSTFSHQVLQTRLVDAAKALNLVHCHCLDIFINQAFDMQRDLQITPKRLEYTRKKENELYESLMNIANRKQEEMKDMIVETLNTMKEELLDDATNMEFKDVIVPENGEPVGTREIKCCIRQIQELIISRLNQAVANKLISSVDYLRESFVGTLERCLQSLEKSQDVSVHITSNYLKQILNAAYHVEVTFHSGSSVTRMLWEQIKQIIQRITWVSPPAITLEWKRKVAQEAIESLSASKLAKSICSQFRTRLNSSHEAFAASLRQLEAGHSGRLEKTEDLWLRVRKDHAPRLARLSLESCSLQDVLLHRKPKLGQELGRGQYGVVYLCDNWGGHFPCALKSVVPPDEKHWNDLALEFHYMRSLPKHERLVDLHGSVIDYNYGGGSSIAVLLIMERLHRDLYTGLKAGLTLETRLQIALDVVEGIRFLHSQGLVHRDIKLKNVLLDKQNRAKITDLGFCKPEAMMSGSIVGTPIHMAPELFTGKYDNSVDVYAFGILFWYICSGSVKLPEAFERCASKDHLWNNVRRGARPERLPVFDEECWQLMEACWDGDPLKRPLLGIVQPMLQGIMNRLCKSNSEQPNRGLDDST
Mitogen-activated protein kinase 6 (Homo sapiens), sequence (Q16659 whole entry): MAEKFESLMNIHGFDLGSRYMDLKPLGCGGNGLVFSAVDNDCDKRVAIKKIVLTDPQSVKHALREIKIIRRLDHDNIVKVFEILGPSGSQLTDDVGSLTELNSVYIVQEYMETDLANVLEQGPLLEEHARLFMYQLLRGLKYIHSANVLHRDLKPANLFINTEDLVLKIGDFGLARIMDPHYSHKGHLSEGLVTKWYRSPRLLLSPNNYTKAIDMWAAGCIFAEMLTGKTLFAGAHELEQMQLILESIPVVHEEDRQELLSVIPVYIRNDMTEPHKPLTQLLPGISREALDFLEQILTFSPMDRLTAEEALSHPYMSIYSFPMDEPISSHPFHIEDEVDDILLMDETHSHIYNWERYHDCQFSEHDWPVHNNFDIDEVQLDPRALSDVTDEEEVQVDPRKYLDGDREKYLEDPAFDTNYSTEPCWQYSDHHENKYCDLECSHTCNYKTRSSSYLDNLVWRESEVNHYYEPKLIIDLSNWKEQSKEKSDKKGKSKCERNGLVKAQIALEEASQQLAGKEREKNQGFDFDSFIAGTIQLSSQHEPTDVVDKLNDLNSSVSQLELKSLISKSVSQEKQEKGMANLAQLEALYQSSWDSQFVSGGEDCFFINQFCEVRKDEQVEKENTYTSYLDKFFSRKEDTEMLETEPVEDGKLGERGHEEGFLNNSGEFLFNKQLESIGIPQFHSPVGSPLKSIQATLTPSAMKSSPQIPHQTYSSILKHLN
Cyclin-dependent kinase-like 5 (Homo sapiens), sequence (O76039 whole entry): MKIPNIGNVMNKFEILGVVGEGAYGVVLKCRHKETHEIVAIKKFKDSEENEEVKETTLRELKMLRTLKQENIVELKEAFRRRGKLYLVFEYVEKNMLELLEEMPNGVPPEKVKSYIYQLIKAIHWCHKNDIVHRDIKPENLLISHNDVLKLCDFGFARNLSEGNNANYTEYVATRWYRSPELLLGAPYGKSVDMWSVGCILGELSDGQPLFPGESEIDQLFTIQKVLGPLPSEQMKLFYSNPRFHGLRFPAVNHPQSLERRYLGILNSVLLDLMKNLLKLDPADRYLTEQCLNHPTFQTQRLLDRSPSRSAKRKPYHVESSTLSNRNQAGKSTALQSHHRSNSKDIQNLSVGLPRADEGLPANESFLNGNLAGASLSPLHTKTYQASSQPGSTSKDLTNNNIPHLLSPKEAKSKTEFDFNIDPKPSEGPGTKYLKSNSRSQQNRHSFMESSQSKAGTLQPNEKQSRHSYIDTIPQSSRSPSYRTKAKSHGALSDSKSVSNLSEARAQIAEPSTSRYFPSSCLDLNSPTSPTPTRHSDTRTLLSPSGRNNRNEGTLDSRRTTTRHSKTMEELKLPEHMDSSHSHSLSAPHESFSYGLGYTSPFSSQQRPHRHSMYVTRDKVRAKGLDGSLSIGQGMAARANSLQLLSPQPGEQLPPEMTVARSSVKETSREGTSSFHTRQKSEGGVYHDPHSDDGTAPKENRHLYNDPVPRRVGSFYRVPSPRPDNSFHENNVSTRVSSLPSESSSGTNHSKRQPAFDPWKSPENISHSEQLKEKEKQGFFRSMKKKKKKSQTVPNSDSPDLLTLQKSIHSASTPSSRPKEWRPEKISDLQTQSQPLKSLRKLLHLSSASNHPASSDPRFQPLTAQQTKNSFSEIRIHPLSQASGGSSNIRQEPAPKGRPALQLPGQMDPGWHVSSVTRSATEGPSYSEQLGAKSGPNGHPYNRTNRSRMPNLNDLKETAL
Dual specificity protein kinase CLK3 (Homo sapiens), sequence (P49761 whole entry, looked up): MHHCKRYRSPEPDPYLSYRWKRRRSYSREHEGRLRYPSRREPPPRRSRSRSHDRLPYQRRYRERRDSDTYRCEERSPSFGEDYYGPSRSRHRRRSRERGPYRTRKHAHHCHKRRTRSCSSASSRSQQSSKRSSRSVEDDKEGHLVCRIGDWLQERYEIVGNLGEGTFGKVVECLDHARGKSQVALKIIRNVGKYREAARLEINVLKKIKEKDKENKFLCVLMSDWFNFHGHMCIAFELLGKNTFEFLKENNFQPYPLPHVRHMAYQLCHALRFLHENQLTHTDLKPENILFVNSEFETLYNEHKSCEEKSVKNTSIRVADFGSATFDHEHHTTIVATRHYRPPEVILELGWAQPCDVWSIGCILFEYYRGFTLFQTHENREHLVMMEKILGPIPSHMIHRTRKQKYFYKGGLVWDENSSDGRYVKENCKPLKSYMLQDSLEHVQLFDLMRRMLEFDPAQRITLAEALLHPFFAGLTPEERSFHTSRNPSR
Tyrosine-protein kinase JAK1 (Homo sapiens), sequence (P23458 whole entry, canonical isoform): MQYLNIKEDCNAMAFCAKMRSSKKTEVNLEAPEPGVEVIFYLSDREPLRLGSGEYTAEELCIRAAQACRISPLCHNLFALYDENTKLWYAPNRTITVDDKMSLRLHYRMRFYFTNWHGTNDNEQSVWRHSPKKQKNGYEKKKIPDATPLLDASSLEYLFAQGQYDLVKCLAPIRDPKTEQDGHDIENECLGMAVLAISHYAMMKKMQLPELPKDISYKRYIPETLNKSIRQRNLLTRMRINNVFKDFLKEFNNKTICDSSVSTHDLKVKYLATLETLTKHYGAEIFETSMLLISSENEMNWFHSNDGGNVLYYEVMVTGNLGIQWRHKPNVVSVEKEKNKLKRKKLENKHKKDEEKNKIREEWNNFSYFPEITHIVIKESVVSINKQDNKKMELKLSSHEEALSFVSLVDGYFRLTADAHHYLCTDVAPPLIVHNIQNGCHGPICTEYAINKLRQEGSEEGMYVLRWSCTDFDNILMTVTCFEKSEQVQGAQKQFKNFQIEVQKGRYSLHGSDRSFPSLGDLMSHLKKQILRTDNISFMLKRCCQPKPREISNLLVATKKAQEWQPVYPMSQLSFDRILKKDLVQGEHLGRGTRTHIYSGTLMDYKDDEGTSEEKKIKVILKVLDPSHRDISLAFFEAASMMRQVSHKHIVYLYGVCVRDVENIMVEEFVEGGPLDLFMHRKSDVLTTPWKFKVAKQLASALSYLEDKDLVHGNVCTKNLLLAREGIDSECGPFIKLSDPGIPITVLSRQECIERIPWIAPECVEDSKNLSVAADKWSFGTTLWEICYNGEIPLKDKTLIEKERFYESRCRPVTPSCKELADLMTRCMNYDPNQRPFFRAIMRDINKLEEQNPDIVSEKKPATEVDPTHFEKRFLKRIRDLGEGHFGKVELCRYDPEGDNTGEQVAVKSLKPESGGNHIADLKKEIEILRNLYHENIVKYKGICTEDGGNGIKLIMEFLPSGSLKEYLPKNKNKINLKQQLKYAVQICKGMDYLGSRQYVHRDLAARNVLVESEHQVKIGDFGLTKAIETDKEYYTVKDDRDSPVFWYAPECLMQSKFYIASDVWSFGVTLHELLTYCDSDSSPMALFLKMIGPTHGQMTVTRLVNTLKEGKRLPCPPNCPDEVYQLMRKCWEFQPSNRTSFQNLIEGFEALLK

Cc1nc(C2CCN(C(=O)c3ccc(OC(F)(F)F)cc3N)CC2)c2ncc(N3CCN(C)CC3)cc2n1 [BAY-693]
inactive: [1] 90% | [2] 78% | [3] 100% | [4] 95% | [5] 94% | [6] 89% | [7] 100% | [8] 92% | [9] 100%

CN1CCN(c2cnc3c(C4CCN(C(=O)c5ccc(OC(F)(F)F)cc5N)CC4)ncnc3c2)CC1 [BAY-885]
inactive: [1] 90% | [2] 86% | [3] 61% | [4] 100% | [5] 100% | [6] 93% | [7] 100% | [8] 100% | [9] 100%
